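Interpolation was linear, between the two tested concentrations surrounding the appropriate level; five concentrations were tested over 48 hours in 96-well plates. Definition used: TGI = concentration required for complete inhibition of growth.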
Legend:
Assay in all cases: inhibition of tumour cell growth, NCI panel, 48 h
[1] = system: 786-0 renal
[2] = system: CCRF-CEM leukemia
[3] = system: DU-145 prostate
[4] = system: HS 578T breast
[5] = system: M14 melanoma
[6] = system: NCI-H226 lung
[7] = system: OVCAR-4 ovarian
[8] = system: RPMI-8226 leukemia
[9] = system: SK-MEL-28 melanoma
[10] = system: SNB-19 CNS
[11] = system: SNB-75 CNS
[12] = system: T-47D breast
[13] = system: UACC-62 melanoma
[14] = system: EKVX NSCLC

CC(=O)Nc1ccc(-c2nc3ccccc3s2)cc1O
TGI [1]: > 100 µM
TGI [2]: > 100 µM
TGI [3]: > 100 µM
TGI [4]: > 100 µM
TGI [5]: > 100 µM
TGI [6]: 45.9 µM
TGI [7]: > 100 µM
TGI [8]: > 100 µM
TGI [9]: > 100 µM
TGI [10]: > 100 µM
TGI [11]: > 100 µM
TGI [12]: > 100 µM
TGI [13]: 83.1 µM

[N-]=[N+]=NC1=C(c2ccccc2)C(=O)c2cccc3cccc1c23
TGI [1]: 88.1 µM
TGI [2]: > 100 µM
TGI [3]: > 100 µM
TGI [4]: 48.6 µM
TGI [5]: > 100 µM
TGI [7]: > 100 µM
TGI [8]: > 100 µM
TGI [9]: > 100 µM
TGI [10]: > 100 µM
TGI [11]: 76.5 µM
TGI [12]: 82.1 µM
TGI [13]: 34.9 µM

COc1c(O)cc(C(=O)O[C@@H]2Cc3c(O)cc(O)cc3O[C@@H]2c2cc(O)c(O)c(O)c2)cc1O
TGI [1]: 33.8 µM
TGI [3]: 46.7 µM
TGI [14]: 61.6 µM
TGI [4]: > 100 µM
TGI [5]: > 100 µM
TGI [7]: 46.4 µM
TGI [8]: 57.7 µM
TGI [9]: > 100 µM
TGI [10]: 43 µM
TGI [12]: 86 µM
TGI [13]: 78.4 µM

CN(C)/C=N/S(=O)(=O)c1nn2c(C=O)c(-c3ccc(-c4ccc([N+](=O)[O-])cc4)o3)nc2s1
TGI [1]: 2.47 µM
TGI [2]: 3.98 µM
TGI [3]: 26.6 µM
TGI [14]: 21.1 µM
TGI [4]: > 21.8 µM
TGI [6]: > 64.7 µM
TGI [7]: > 39.3 µM
TGI [8]: 13.5 µM
TGI [9]: 6.22 µM
TGI [10]: 45.5 µM
TGI [11]: 36.6 µM
TGI [12]: > 44.6 µM
TGI [13]: 16.8 µM

c1ccc2c(c1)C(=Nc1ccc(N=C3c4ccccc4-c4ccccc43)cc1)c1ccccc1-2
TGI [1]: > 100 µM
TGI [2]: > 100 µM
TGI [3]: > 100 µM
TGI [14]: > 100 µM
TGI [4]: > 100 µM
TGI [5]: > 100 µM
TGI [6]: > 100 µM
TGI [7]: > 100 µM
TGI [8]: > 100 µM
TGI [10]: > 100 µM
TGI [12]: > 100 µM
TGI [13]: > 100 µM

Cc1ccc(C)c(NC(=O)C(Cc2c[nH]c3ccccc23)NC(=O)OCc2ccccc2)c1 (stereo not drawn)
TGI [1]: 39.3 µM
TGI [2]: 12.2 µM
TGI [3]: 33.7 µM
TGI [14]: 49 µM
TGI [4]: > 100 µM
TGI [5]: 34.7 µM
TGI [7]: 25 µM
TGI [8]: 44 µM
TGI [9]: > 100 µM
TGI [10]: 27.6 µM
TGI [11]: 27.9 µM
TGI [12]: 38 µM
TGI [13]: 59.7 µM

Cc1cc(-c2nc3cc(F)c(F)cc3s2)ccc1N
TGI [1]: > 100 µM
TGI [2]: > 100 µM
TGI [3]: > 100 µM
TGI [14]: > 100 µM
TGI [4]: > 100 µM
TGI [5]: > 100 µM
TGI [7]: > 100 µM
TGI [8]: > 100 µM
TGI [9]: > 100 µM
TGI [10]: > 100 µM
TGI [11]: > 92.9 µM
TGI [12]: > 100 µM
TGI [13]: > 100 µM

COC(=O)CCC(=O)c1ccc2c(c1)CC1(C2)Cc2ccc3c(c2C1)CCCC3=O (stereo not drawn)
TGI [1]: > 85.2 µM
TGI [2]: 11 µM
TGI [3]: > 100 µM
TGI [14]: > 100 µM
TGI [4]: > 100 µM
TGI [5]: > 57 µM
TGI [6]: 85.6 µM
TGI [7]: > 74 µM
TGI [9]: > 100 µM
TGI [10]: > 100 µM
TGI [11]: > 100 µM
TGI [12]: > 100 µM
TGI [13]: > 100 µM

Cc1n[nH]c(=O)n1N1C(=O)c2ccccc2C1=O
TGI [1]: > 100 µM
TGI [2]: > 100 µM
TGI [3]: > 100 µM
TGI [14]: > 100 µM
TGI [4]: > 100 µM
TGI [5]: > 100 µM
TGI [6]: > 100 µM
TGI [7]: > 100 µM
TGI [9]: > 100 µM
TGI [10]: > 100 µM
TGI [11]: > 100 µM
TGI [12]: > 100 µM
TGI [13]: > 100 µM

CCc1n[nH]c(=O)n1NC(=O)/C=C\C(=O)O
TGI [1]: > 100 µM
TGI [2]: > 100 µM
TGI [3]: > 100 µM
TGI [14]: > 100 µM
TGI [4]: > 100 µM
TGI [5]: > 100 µM
TGI [6]: > 100 µM
TGI [7]: > 100 µM
TGI [11]: > 100 µM
TGI [12]: > 100 µM
TGI [13]: > 100 µM

CCCCCCCCCCCCP(=O)(O)OCC(N)C(=O)O (stereo not drawn)
TGI [1]: > 100 µM
TGI [3]: > 100 µM
TGI [14]: > 100 µM
TGI [4]: 58.2 µM
TGI [5]: > 100 µM
TGI [6]: > 100 µM
TGI [7]: > 100 µM
TGI [8]: 91.9 µM
TGI [9]: > 100 µM
TGI [10]: 44.7 µM
TGI [11]: 40.3 µM
TGI [12]: > 100 µM

CN(C(=O)c1cccs1)C(=S)N1CCN(c2ccccc2)CC1
TGI [1]: > 100 µM
TGI [2]: > 100 µM
TGI [3]: > 100 µM
TGI [4]: > 100 µM
TGI [5]: > 100 µM
TGI [6]: > 100 µM
TGI [7]: > 100 µM
TGI [8]: > 100 µM
TGI [9]: > 100 µM
TGI [10]: > 100 µM
TGI [11]: > 100 µM
TGI [12]: > 100 µM
TGI [13]: > 100 µM

Cc1nc2c(ncn2CCO)c(=O)[nH]1
TGI [1]: > 100 µM
TGI [2]: > 100 µM
TGI [3]: > 100 µM
TGI [14]: > 100 µM
TGI [4]: > 100 µM
TGI [5]: > 100 µM
TGI [6]: > 100 µM
TGI [7]: > 100 µM
TGI [9]: > 100 µM
TGI [10]: > 100 µM
TGI [11]: > 100 µM
TGI [12]: > 100 µM
TGI [13]: > 100 µM

C[C@]12CCC(=O)C=C1CC[C@@H]1C2CC[C@]2(C)Nc3c(ncn3-c3ccc(F)cc3)CC12 (stereo partly drawn)
TGI [1]: > 100 µM
TGI [2]: 82.6 µM
TGI [3]: > 100 µM
TGI [14]: > 100 µM
TGI [4]: 71 µM
TGI [5]: > 100 µM
TGI [6]: > 100 µM
TGI [7]: > 100 µM
TGI [9]: > 100 µM
TGI [10]: > 100 µM
TGI [11]: 77.4 µM
TGI [12]: 88.7 µM
TGI [13]: 54.4 µM

COC1(C)C=NCC(C)(C)NC(=O)C(C)(OC)C=NCC(C)(C)NC1=O (stereo not drawn)
TGI [1]: > 10 µM
TGI [2]: > 10 µM
TGI [3]: > 10 µM
TGI [14]: > 10 µM
TGI [4]: > 10 µM
TGI [5]: > 10 µM
TGI [7]: > 10 µM
TGI [8]: > 10 µM
TGI [9]: > 10 µM
TGI [10]: > 10 µM
TGI [11]: > 10 µM
TGI [12]: > 10 µM
TGI [13]: > 10 µM
